Glass transition temperature data for 22 compounds are collected here from the PolyMetriX glass transition set.

Compound `*C(=O)c1ccc2c(c1)C(=O)N(c1ccc(C(=O)N(C)c3ccc(N4C(=O)c5ccc(*)cc5C4=O)cc3)cc1)C2=O` (repeat unit) gave a glass transition temperature of 313.00 °C.
The figure for `*C(=O)c1ccc2c(c1)C(=O)N(c1cccc(Cc3ccc(C(=O)c4ccc(N5C(=O)c6ccc(*)cc6C5=O)cc4)cc3)c1)C2=O` (repeat unit) is 254.00 °C.
Compound `*CCCCCC(=O)Oc1ccc(OC(=O)CCCCCn2c(=O)c3cc4c(=O)n(*)c(=O)c4cc3c2=O)c(C)c1` (repeat unit) came in with a glass transition temperature of 78.00 °C.
The figure for `*[O][Sn]([CH2]CCC)([CH2]CCC)[O]C(=O)/C=C/C(*)=O` (repeat unit) is 186.00 °C; for `*[O][Sn]([CH2]CCC)([CH2]CCC)[O]C(=O)c1ccc(C(*)=O)cc1` (repeat unit) it is 315.00 °C; for `*Oc1c(C)cc(C(C)(C)c2cc(C)c(OC(*)=O)c(Cl)c2)cc1Cl` (repeat unit) it is 154.00 °C.
For `*Oc1cc(C(C)(C)c2ccccc2)c(OC(=O)c2ccc(C(*)=O)cc2)cc1C(C)(C)c1ccccc1` (repeat unit) the value was 170.00 °C; for `*Oc1cc(OC(=O)c2ccc(C(*)=O)cc2)cc(C(=O)OCCN(CC)c2ccc(/N=N/c3ccc([N+](=O)[O-])cc3)cc2)c1` (repeat unit), 130.00 °C.
The compound `*Oc1cc(OC(=O)c2ccc(OC)cc2)c(OC(=O)CCCC(*)=O)cc1OC(=O)c1ccc(OC)cc1` (repeat unit) gave a glass transition temperature of 88.00 °C.
Compound `*Oc1cc(OC(=O)c2ccc(OC)cc2)c(OC(=O)CCCCCCCCCCCCCCC(*)=O)cc1OC(=O)c1ccc(OC)cc1` (repeat unit) registered a glass transition temperature of 33.00 °C.
For `*Oc1cc(OC(=O)c2ccc(OCC)cc2)c(OC(=O)CCCCCCCCCCCCCCC(*)=O)cc1OC(=O)c1ccc(OCC)cc1` (repeat unit) the value was 31.00 °C; for `*Oc1cc(OC(=O)c2ccc(OCCC)cc2)c(OC(=O)CCCC(*)=O)cc1OC(=O)c1ccc(OCCC)cc1` (repeat unit), 72.00 °C; for `*Oc1cc(OC(=O)c2ccc(OCCC)cc2)c(OC(=O)CCCCCCCCCCCCCCC(*)=O)cc1OC(=O)c1ccc(OCCC)cc1` (repeat unit), 18.00 °C.
For `*Oc1cc(OC(=O)c2ccc(OCCCC)cc2)c(OC(=O)CCCC(*)=O)cc1OC(=O)c1ccc(OCCCC)cc1` (repeat unit) the value was 59.00 °C; for `*Oc1cc(OC(=O)c2ccc(OCCCC)cc2)c(OC(=O)CCCCCCCC(*)=O)cc1OC(=O)c1ccc(OCCCC)cc1` (repeat unit), 38.00 °C.
The compound `*Oc1cc(OC(=O)c2ccc(OCCCCCCCCCCCC)cc2)c(OC(=O)CCCC(*)=O)cc1OC(=O)c1ccc(OCCCCCCCCCCCC)cc1` (repeat unit) registered a glass transition temperature of 23.00 °C.
The figure for `*Oc1cc(OCCOC)c(OC(=O)c2ccc(C(*)=O)cc2-c2ccccc2)cc1OCCOC` (repeat unit) is 92.00 °C; for `*Oc1ccc(-c2ccc(OC(=O)c3ccc(-c4ccc(C(*)=O)cc4C(F)(F)F)c(C(F)(F)F)c3)cc2C(=O)OCCCCCCCCCCCOc2ccc(-c3ccc(C#N)cc3)cc2)c(C(=O)OCCCCCCCCCCCOc2ccc(-c3ccc(C#N)cc3)cc2)c1` (repeat unit) it is 50.00 °C.
The figure for `*Oc1ccc(OC(=O)c2cc(OCCCc3ccccc3)c(C(*)=O)cc2OCCCc2ccccc2)cc1C` (repeat unit) is 91.00 °C; for `*Oc1ccc(OC(=O)c2ccc(-c3ccc(C(*)=O)cc3)cc2-c2ccccc2)cc1C` (repeat unit) it is 133.00 °C.
For `*Oc1ccc(OC(=O)c2ccc(C(*)=O)cc2Sc2ccccc2)cc1C` (repeat unit) the value was 130.00 °C; for `*c1ccc(C(=O)c2ccc(N3C(=O)c4ccc(Oc5ccc(Oc6ccc7c(c6)C(=O)N(*)C7=O)cc5)cc4C3=O)cc2)cc1` (repeat unit), 268.00 °C.
